For 38 molecules, IC50 results are on record in patent publication US11046691B1 (IDEAYA BIOSCIENCES, INC., priority 2018, dated 2021).

For the first assay, the target named is hMAT2A (Homo sapiens (Human), UniProt P31153). The assay can be described thus: Phosphate Sensor Fluorescence Assay (MAT2A enzyme inhibition). Format: biochemical. The settings on record: L-methionine 500 uM, ATP 500 uM, class symbols. The protocol: The ability of the compound of present disclosure to inhibit MAT2A enzyme was determined using the Malachite Green or Phosphate Sensor Fluorescence Assay described below.
hMAT2A, sequence (P31153 whole entry): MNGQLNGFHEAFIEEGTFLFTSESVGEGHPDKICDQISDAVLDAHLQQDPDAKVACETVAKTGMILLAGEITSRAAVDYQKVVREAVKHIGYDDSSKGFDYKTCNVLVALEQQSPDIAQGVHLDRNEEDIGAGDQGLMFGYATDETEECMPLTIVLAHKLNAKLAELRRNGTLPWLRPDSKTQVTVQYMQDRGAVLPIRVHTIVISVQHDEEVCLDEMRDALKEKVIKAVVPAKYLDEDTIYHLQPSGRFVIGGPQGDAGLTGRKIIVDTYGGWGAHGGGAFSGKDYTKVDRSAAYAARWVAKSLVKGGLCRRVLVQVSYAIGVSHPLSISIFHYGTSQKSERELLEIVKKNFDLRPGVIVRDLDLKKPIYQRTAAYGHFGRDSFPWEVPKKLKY
B. Phosphate Sensor Fluorescence Assay
MAT2A enzyme is incubated with a test compound in DMSO or DMSO and its substrates (L-methionine and ATP) in a microtiter plate. The enzymatic reaction is stopped by the addition of Working Phosphate Sensor Mixture. The plate is analyzed for fluorescence at 450 nm.
Assay Buffer: 50 mM Tris, pH 7.5/50 mM KCl/10 mM MgCl2/0.01% Brij-35/1 mM DTT/0.1% BGG/40 nM PNP/6 uM 7-MEG
L-methionine: 500 uM before the addition of Working Phosphate Sensor Mixture
ATP: 500 uM before the addition of Working Phosphate Sensor Mixture
Test compounds or DMSO were added to the appropriate well suing D300e digital dispenser. 5 μl/well of Assay Buffer was added to the wells corresponding to the negative control and 5 μl/well of MAT2A was added to all the wells except for those corresponding to the negative control. After incubating the plate at room temperature for 15 minutes, 5 μl/well of the 1 mM L-methionine/1 mM ATP mixture was added to all wells. The plate was centrifuged at 1000 rpm for 1 minute and then incubated at room temperature for 1 hour. 5 μl of the Working Phosphate Sensor Mixture was added to all wells and the plate was centrifuged at 1000 rpm for 1 minute. The plate was read for fluorescence at 450 nm after exciting at 430 nm.
Percent inhibition was calculated in Chemical and Biological Information System (CBIS), (ChemInnovation Software Inc.). Curves were fitted by CBIS as % inhibition vs. log [compound concentration] using a 4-parameter inhibition model. Fit=(A+((B−A)/(1+((C/x)^D)))) Res=(y−fit)
In turn, `N#Cc1cccc(-n2c(=O)nc(N3CC(O)C3)c3ccc(C(F)(F)F)nc32)c1` [Example 162, 3-(4-(3-hydroxyazetidin-1-yl)-2-oxo-7-(trifluoromethyl)pyrido[2,3-d]pyrimidin-1(2H)-yl)benzonitrile] registered an IC50 of less than 200 nM.
Same read-out and setting: the figure for `N#Cc1cccc(-n2c(=O)nc(N3CC(O)C3)c3ccc(C(F)(F)F)cc32)c1` [Example 139, 3-[4-(3-hydroxyazetidinyl)-2-oxo-7-(trifluoromethyl)hydroquinazolinyl]-benzenecarbonitrile] is less than 200 nM; for `CNc1nc(=O)n(-c2ccccc2)c2cc(CCl)ccc12` [Example 160, 7-(chloromethyl)-4-(methylamino)-1-phenylhydroquinazolin-2-one] it is less than 200 nM.
Still for that read-out and setting: the figure for `CNc1nc(=O)n(-c2ccccc2Br)c2cc(Cl)ccc12` [Example 225, 1-(2-bromophenyl)-7-chloro-4-(methylamino)quinazolin-2-one] is less than 200 nM; for `O=c1nc(NCC2CC2)c2ccc(C(F)(F)F)nc2n1-c1ccccc1Cl` [Example 246] it is less than 200 nM; for `O=c1nc(N2CC[C@H]2CO)c2ccc(Cl)cc2n1-c1ccccc1` [Example 172, (S)-7-chloro-4-(2-(hydroxymethyl)-azetidin-1-yl)-1-phenylquinazolin-2(1H)-one] it is less than 200 nM.
Same read-out and setting: to `O=c1[nH]c(=O)n(-c2ccccc2)c2cc(C(F)F)ccc12` [Example 166, 7-(difluoromethyl)-1-phenyl-1,3-dihydroquinazoline-2,4-dione] belongs 200 to 500 nM; to `CCOC(=O)c1ccc2c(=O)[nH]c(=O)n(-c3ccccc3)c2c1` [Example 213, ethyl 2,4-dioxo-1-phenyl-1,3-dihydro-quinazoline-7-carboxylate], 1000 to 10000 nM; to `COCCCNc1nc(=O)n(-c2ccccc2Cl)c2nc(C(F)(F)F)ccc12` [Example 248, 1-(2-chlorophenyl)-4-[(3-methoxy-propyl)amino]-7-(trifluoromethyl)-pyrido[2,3-d]pyrimidin-2(1H)-one], less than 200 nM.
As to `CN(C)C(=O)CNc1nc(=O)n(-c2ccccc2)c2cc(Cl)ccc12` [Example 231, 2-[(7-chloro-2-oxo-1-phenyl-1,2-dihydroquinazolin-4-yl)amino]-N,N-dimethylacetamide], the IC50 was 1000 to 10000 nM.
The same measure, in the same setting: the figure for `Nc1nc(=O)n(-c2cccnc2)c2cc(C(F)(F)F)ccc12` [Example 327, 4-amino-1-(pyridin-3-yl)-7-(trifluoro-methyl)hydroquinazolin-2-one] is less than 200 nM.
On the same count and under the same terms, to `O=c1nc(NCC(F)(F)F)c2ccc(C(F)(F)F)cc2n1-c1ccccc1Cl` [Example 101, 1-(2-chlorophenyl)-4-[(2,2,2-trifluoro-ethyl)amino]-7-(trifluoromethyl)hydro-quinazolin-2-one] belongs less than 200 nM; to `CNc1nc(=O)n(-c2ccc(F)c(O)c2)c2cc(Cl)ccc12` [Example 310, 7-chloro-1-(4-fluoro-3-hydroxyphenyl)-4-(methylamino)hydroquinazolin-2-one], less than 200 nM.
The same measure, in the same setting: to `CNc1nc(=O)n(-c2ccccc2)c2cc(Cl)cc(OCC(F)(F)F)c12` [Example 350, 7-chloro-4-(methylamino)-1-phenyl-5-(2,2,2-trifluoroethoxy)hydroquinazolin-2-one] belongs less than 200 nM; to `CCc1nc(=O)n(-c2ccccc2)c2cc(Cl)ccc12` [Example 105, 7-chloro-4-ethyl-1-phenylhydro-quinazolin-2-one], 200 to 500 nM; to `CN(Cc1ccccc1)c1nc(=O)n(-c2ccccc2)c2cc(Cl)ccc12` [Example 197, 7-chloro-4-[methylbenzylamino]-1-phenylhydroquinazolin-2-one], less than 200 nM.
For `CNc1nc(=O)n(-c2ccccc2Cl)c2cc(C3CC3)c(Br)cc12` [Example 417, 6-bromo-1-(2-chlorophenyl)-7-cyclo-propyl-4-(methylamino)hydro-quinazolin-2-one], the IC50 is less than 200 nM.
Take `COc1nc(=O)n(-c2ccccc2)c2nc(C)ccc12` [Example 396, 4-methoxy-7-methyl-1-phenylpyrido-[2,3-d]pyrimidin-2(1H)-one]: the IC50 lay in the range of 200 to 500 nM.
Molecule `O=c1[nH]c(=O)n(-c2cccc3ncsc23)c2nc(C(F)(F)F)ccc12` [Example 363, 1-benzothiazol-7-yl-7-(trifluoromethyl)-pyrido[2,3-d]pyrimidine-2,4(1H,3H)-dione] registered an IC50 of less than 200 nM.
On the same count and under the same terms, the figure for `Cc1ccccc1-n1c(=O)[nH]c(=O)c2ccc(C(F)(F)F)cc21` [Example 147, 1-(2-methylphenyl)-7-(trifluoromethyl)-1,3-dihydroquinazoline-2,4-dione] is less than 200 nM; for `CNc1nc(=O)n(-c2ccccc2)c2cc(Cl)c(C#N)cc12` [Example 190, 7-chloro-4-(methylamino)-2-oxo-1-phenylhydroquinazoline-6-carbonitrile] it is 1000 to 10000 nM.
Same read-out and setting: the figure for `Cn1ccc(CNc2nc(=O)n(-c3ccccc3)c3cc(Cl)ccc23)n1` [Example 233, 7-chloro-4-1{[(1-methylpyrazol-3-yl)-methyl]amino}-1-phenylhydro-quinazolin-2-one] is less than 200 nM; for `C[C@]1(O)C[C@H](Nc2nc(=O)n(-c3ccccc3Cl)c3nc(C(F)(F)F)ccc23)C1` [Example 300, 4-[((trans)-3-hydroxy-3-methylcyclo-butyl)amino]-1-(2-chlorophenyl)-7-(trifluoromethyl)pyrido[2,3-d]pyrimidin-2(1H)-one] it is less than 200 nM.
On the same count and under the same terms, the figure for `O=c1nc(NCC(F)F)c2ccc(C3CC3)cc2n1-c1ccccc1` [Example 373] is less than 200 nM; for `Cc1ccccc1-n1c(=O)nc(N2CC[C@@H](O)C2)c2ccc(C(F)(F)F)cc21` [Example 128, 4-((3R)-3-hydroxypyrrolidin-1-yl)-1-(2-methylphenyl)-7-(trifluoromethyl)hydro-quinazolin-2-one] it is less than 200 nM.
Molecule `Cc1ccccc1-n1c(=O)nc(N)c2ccc(C(F)(F)F)nc21` [Example 169, 4-amino-1-(2-methylphenyl)-7-(trifluoromethyl)pyrido[2,3-d]pyrimidin-2(1H)-one] came in with an IC50 of less than 200 nM.
Same read-out and setting: to `O=c1nc(N2CC[C@@H](O)C2)c2ccc(Cl)cc2n1-c1ccc2[nH]cnc2c1` [Example 281, (R)-7-chloro-4-(3-hydroxypyrrolidin-1-yl)-1-(1H-benzimidazol-5-yl)quinazolin-2(1H)-one] belongs less than 200 nM; to `O=c1nc(NC2COC2)c2ccc(C(F)(F)F)nc2n1-c1ccccc1Cl` [Example 274, 1-(2-chlorophenyl)-4-(oxetan-3-yl-amino)-7-(trifluoromethyl)pyrido[2,3-d]pyrimidin-2(1H)-one], less than 200 nM; to `COCCNc1nc(=O)n(-c2ccccc2Cl)c2nc(C(F)(F)F)ccc12` [Example 317, 1-(2-chlorophenyl)-4-[(2-methoxyethyl)-amino]-7-(trifluoromethyl)pyrido[2,3-d]-pyrimidin-2(1H)-one], less than 200 nM.
In turn, `CNc1nc(=O)n(-c2nc(C)cs2)c2cc(Cl)ccc12` [Example 117, 7-chloro-1-(4-methyl(1,3-thiazol-2-yl))-4-(methylamino)hydroquinazolin-2-one] showed an IC50 of 1000 to 10000 nM.
Molecule `O=c1nc(N2CCOCC2)c2ccc(C(F)(F)F)nc2n1-c1ccccc1Cl` [Example 286, 1-(2-chlorophenyl)-4-morpholin-4-yl-7-(trifluoromethyl)pyrido[2,3-d]pyrimidin-2(1H)-one] showed an IC50 of less than 200 nM.
Turning to `N#Cc1cccc(-n2c(=O)nc(N)c3ccc(C(F)(F)F)cc32)c1` [Example 140, 3-[4-amino-2-oxo-7-(trifluoromethyl)-hydroquinazolinyl]benzenecarbonitrile], the 50% inhibitory concentration (IC50) was less than 200 nM.
The same measure, in the same setting: to `CC1(O)CCN(c2nc(=O)n(-c3ccccc3Cl)c3nc(C(F)(F)F)ccc23)C1` (racemic) [Example 255] belongs less than 200 nM.

The same assay, now with this note: L-methionine 500 uM, ATP 500 uM, numeric bound.
Molecule `O=c1ncc2ccc(Cl)cc2n1-c1ccccc1` [Example 191, 7-chloro-1-phenylhydroquinazolin-2-one] yielded an IC50 greater than 10000 nM.
The same measure, in the same setting: to `CN(C)c1nc(=O)n(-c2ccccc2)c2cc(-c3cscn3)ccc12` [Example 228, 4-(dimethylamino)-1-phenyl-7-(1,3-thiazol-4-yl)hydroquinazolin-2-one] belongs greater than 10000 nM; to `Cn1ccnc1-n1c(=O)[nH]c(=O)c2ccc(Cl)cc21` [Example 215, 7-chloro-1-(1-methylimidazol-2-yl)-1,3-dihydroquinazoline-2,4-dione], greater than 10000 nM.
For the molecule `CNc1nc(=O)n(-c2ccccc2)c2cc(Cl)cc(-n3cccn3)c12` [Example 208, 7-chloro-4-(methylamino)-1-phenyl-5-(1H-pyrazol-1-yl)quinazolin-2(1H)-one], the IC50 is greater than 10000 nM.
`CNc1nc(=O)n(-c2ccccc2)c2cc(Cl)cc(OC3CN(C(=O)OC(C)(C)C)C3)c12` [Example 132, tert-butyl 3-[7-chloro-4-(methylamino)-2-oxo-1-phenylhydroquinazolin-5-yl-oxy]azetidinecarboxylate] came in with an IC50 greater than 10000 nM.
